In US20240293558A1, “KRAS INHIBITOR CONJUGATES” (Erasca, Inc., priority 2021, published 2024):

Columns and labels:
KRAS (WT) = target: T1, KRAS (WT) (Homo sapiens, UniProt P01116); test: In-vitro RAS-RAF binding assay (RRB), HTRF/FRET; format: biochemical; details: Table 2, average of multiple runs of each compound; read-out: Inhibition of RAS-RAF Binding (in-vitro) KRAS (WT) IC50
T1 construct: Biotinylated KRAS protein amino acids 1-169 (produced at Erasca); made in house
Method in brief: (§1)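 Biotinylated KRAS 1-169 (streptavidin-terbium donor, 30 nM) and GST-cRAF RBD (anti-GST d2 acceptor, 30 nM) in HEPES pH 7.5, NaCl, MgCl2, DTT buffer. After compound incubation, SOS1 catalytic domain plus GTPgS drive 60 min nucleotide exchange. HTRF FRET read at equilibrium, in duplicate.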

[1] = target: T2, KRas G12D fused to HiBiT peptide (Homo sapiens, UniProt P01116, G12D); test: ASPC-1 HiBit assay to determine G12D degradation; format: cell-based; details: AsPC-1 HiBiT cells, 24-hour incubation; read-out: ASPC-1 HiBit DC50 (C)
T2 construct: endogenous in cells; host or cells: AsPC-1 HiBiT knock-in single clone (Cas9 RNP + ssODN)
T2 sequence (P01116 1-188 isoform P01116-2 G12D): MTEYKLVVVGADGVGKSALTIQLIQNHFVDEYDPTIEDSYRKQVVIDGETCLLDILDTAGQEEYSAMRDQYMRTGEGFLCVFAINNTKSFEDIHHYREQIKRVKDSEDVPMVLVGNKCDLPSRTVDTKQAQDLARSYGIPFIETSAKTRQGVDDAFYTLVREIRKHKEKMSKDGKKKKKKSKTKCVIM
Method in brief: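 Homozygous AsPC-1 clone with N-terminal HiBiT knock-in on endogenous KRas G12D, 24 h compound exposure, top dose 10 μM, 3-fold, 10 points, 1% DMSO. Lytic HiBiT luminescence normalised to DMSO and inhibitor controls gives % degradation; DC50 from 4-parameter fit after hook-effect points removed.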

KRAS G12D = KRAS G12D (Homo sapiens, UniProt P01116, G12D); test: In-vitro RAS-RAF binding assay (RRB), HTRF/FRET; format: biochemical; parameters: Biotinylated KRAS protein amino acids 1-169 (produced at Erasca); made in house; details: Table 2, average of multiple runs of each compound; read-out: Inhibition of RAS-RAF Binding (in-vitro) KRAS (G12D) IC50
KRAS G12D, sequence (P01116 1-169 isoform P01116-2 G12D): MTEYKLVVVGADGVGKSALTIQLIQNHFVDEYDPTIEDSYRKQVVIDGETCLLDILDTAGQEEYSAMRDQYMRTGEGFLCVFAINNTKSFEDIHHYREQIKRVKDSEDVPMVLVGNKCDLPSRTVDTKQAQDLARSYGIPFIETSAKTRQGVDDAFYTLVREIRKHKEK
Method in brief: as §1

T1 sequence (P01116 1-169 isoform P01116-2): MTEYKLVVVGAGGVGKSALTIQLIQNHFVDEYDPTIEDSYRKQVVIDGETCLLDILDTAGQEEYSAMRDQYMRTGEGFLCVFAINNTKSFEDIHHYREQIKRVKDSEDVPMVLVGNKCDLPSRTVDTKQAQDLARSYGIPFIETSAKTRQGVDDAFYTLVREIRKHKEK

Compound	IC50 (KRAS (WT))	DC50 [1]	IC50 (KRAS G12D)
CC(C)[C@@H](C(=O)N1C[C@H](O)C[C@H]1C(=O)N[C@@H](C)c1ccc(-c2c(F)cccc2F)cc1)c1cc(OCC2(F)CCN(CCOc3nc(N4CC5CCC(C4)N5)c4cc(Cl)c(-c5ccc(F)c6sc(N)c(C#N)c56)c(F)c4n3)CC2)no1 [Example 73, (2S,4R)-1-((2R)-2-(3-((1-(2-((7-(2-amino-3-cyano-7-fluorobenzo[b]thiophen-4-yl)-4-(3,8-diazabicyclo[3.2.1]octan-3-yl)-6-chloro-8-fluoroquinazolin-2-yl)oxy)ethyl)-4-fluoropiperidin-4-yl)methoxy)isoxazol-5-yl)-3-methylbutanoyl)-N-((S)-1-(2′,6′-difluoro-[1,1′-biphenyl]-4-yl)ethyl)-4-hydroxypyrrolidine-2-carboxamide]	> 10000 nM	349 nM	47.6 nM
CC(C)[C@@H](C(=O)N1C[C@H](O)C[C@H]1C(=O)N[C@@H](C)c1ccc(-c2c(F)cccc2F)cc1)c1cc(OCC2(C)CCN(CCOc3nc(N4CC5CCC(C4)N5)c4cc(C(F)(F)F)c(-c5ccc(F)c6sc(N)c(C#N)c56)c(F)c4n3)CC2)no1 [Example 74, (2S,4R)-1-((2R)-2-(3-((1-(2-((7-(2-amino-3-cyano-7-fluorobenzo[b]thiophen-4-yl)-4-(3,8-diazabicyclo[3.2.1]octan-3-yl)-8-fluoro-6-(trifluoromethyl)quinazolin-2-yl)oxy)ethyl)-4-methylpiperidin-4-yl)methoxy)isoxazol-5-yl)-3-methylbutanoyl)-N-((S)-1-(2′,6′-difluoro-[1,1′-biphenyl]-4-yl)ethyl)-4-hydroxypyrrolidine-2-carboxamide]	962 nM	185 nM	18.1 nM
CC(C)[C@@H](C(=O)N1C[C@H](O)C[C@H]1C(=O)N[C@@H](C)c1ccc(-c2c(F)cc(F)cc2F)cc1)c1cc(N2CC3(CCN(CCOc4nc(N5CC6CCC(C5)N6)c5cc(C(F)(F)F)c(-c6ccc(F)c7sc(N)c(C#N)c67)c(F)c5n4)CC3)C2)no1 [Example 75, (2S,4R)-1-((2R)-2-(3-(7-(2-((7-(2-amino-3-cyano-7-fluorobenzo[b]thiophen-4-yl)-4-(3,8-diazabicyclo[3.2.1]octan-3-yl)-8-fluoro-6-(trifluoromethyl)quinazolin-2-yl)oxy)ethyl)-2,7-diazaspiro[3.5]nonan-2-yl)isoxazol-5-yl)-3-methylbutanoyl)-4-hydroxy-N-((S)-1-(2′,4′,6′-trifluoro-[1,1′-biphenyl]-4-yl)ethyl)pyrrolidine-2-carboxamide]	836 nM	843 nM	23.9 nM
CC(C)[C@@H](C(=O)N1C[C@H](O)C[C@H]1C(=O)N[C@@H](C)c1ccc(-c2c(F)cc(F)cc2F)cc1)c1cc(OCC2(C)CCN(CCOc3nc(N4CC5CCC(C4)N5)c4cc(C(F)(F)F)c(-c5ccc(F)c6sc(N)c(C#N)c56)c(F)c4n3)CC2)no1 [Example 76, (2S,4R)-1-((2R)-2-(3-((1-(2-((7-(2-amino-3-cyano-7-fluorobenzo[b]thiophen-4-yl)-4-(3,8-diazabicyclo[3.2.1]octan-3-yl)-8-fluoro-6-(trifluoromethyl)quinazolin-2-yl)oxy)ethyl)-4-methylpiperidin-4-yl)methoxy)isoxazol-5-yl)-3-methylbutanoyl)-4-hydroxy-N-((S)-1-(2′,4′,6′-trifluoro-[1,1′-biphenyl]-4-yl)ethyl)pyrrolidine-2-carboxamide]	1900 nM	259 nM	21.9 nM
CC(C)[C@@H](C(=O)N1C[C@H](O)C[C@H]1C(=O)N[C@@H](C)c1ccc(-c2c(F)cccc2F)cc1)c1cc(N2CC3(CCN(CCOc4nc(N5CC6CCC(C5)N6)c5cc(C(F)(F)F)c(-c6ccc(F)c7sc(N)c(C#N)c67)c(F)c5n4)CC3)C2)no1 [Example 77, (2S,4R)-1-((2R)-2-(3-(7-(2-((7-(2-amino-3-cyano-7-fluorobenzo[b]thiophen-4-yl)-4-(3,8-diazabicyclo[3.2.1]octan-3-yl)-8-fluoro-6-(trifluoromethyl)quinazolin-2-yl)oxy)ethyl)-2,7-diazaspiro[3.5]nonan-2-yl)isoxazol-5-yl)-3-methylbutanoyl)-N-((S)-1-(2′,6′-difluoro-[1,1′-biphenyl]-4-yl)ethyl)-4-hydroxypyrrolidine-2-carboxamide]	1100 nM	330 nM	17.6 nM
CC(C)[C@@H](C(=O)N1C[C@H](O)C[C@H]1C(=O)N[C@@H](C)c1ccc(-c2c(F)cc(F)cc2F)cc1)c1cc(OCC2CCN(CCOc3nc(N4CC5CCC(C4)N5)c4cc(C(F)(F)F)c(-c5ccc(F)c6sc(N)c(C#N)c56)c(F)c4n3)CC2)no1 [Example 78, (2S,4R)-1-((2R)-2-(3-((1-(2-((7-(2-amino-3-cyano-7-fluorobenzo[b]thiophen-4-yl)-4-(3,8-diazabicyclo[3.2.1]octan-3-yl)-8-fluoro-6-(trifluoromethyl)quinazolin-2-yl)oxy)ethyl)piperidin-4-yl)methoxy)isoxazol-5-yl)-3-methylbutanoyl)-4-hydroxy-N-((S)-1-(2′,4′,6′-trifluoro-[1,1′-biphenyl]-4-yl)ethyl)pyrrolidine-2-carboxamide]	1670 nM	294 nM	25.5 nM
Cc1ncsc1-c1ccc([C@H](C)NC(=O)[C@@H]2C[C@@H](O)CN2C(=O)[C@@H](NC(=O)CCOCCCN2CCC[C@H]2COc2nc(N3CC4CCC(C3)N4)c3cc(C(F)(F)F)c(-c4ccc(F)c5sc(N)c(C#N)c45)c(F)c3n2)C(C)(C)C)cc1 [Example 91, (2S,4R)-1-((2S)-2-(3-(3-((2S)-2-((((7S)-7-(2-amino-3-cyano-7-fluorobenzo[b]thiophen-4-yl)-4-(3,8-diazabicyclo[3.2.1]octan-3-yl)-8-fluoro-6-(trifluoromethyl)quinazolin-2-yl)oxy)methyl)pyrrolidin-1-yl)propoxy)propanamido)-3,3-dimethylbutanoyl)-4-hydroxy-N—((S)-1-(4-(4-methylthiazol-5-yl)phenyl)ethyl)pyrrolidine-2-carboxamide]	23 nM	23 nM	8.2 nM
C[C@H](NC(=O)[C@@H]1C[C@@H](O)CN1C(=O)[C@@H](NC(=O)CCOCCCN1CCC[C@H]1COc1nc(N2CC3CCC(C2)N3)c2cc(C(F)(F)F)c(-c3ccc(F)c4sc(N)c(C#N)c34)c(F)c2n1)C(C)(C)C)c1ccc(-c2c(F)cc(F)cc2F)cc1 [Example 92, (2S,4R)-1-((2S)-2-(3-(3-((2S)-2-((((7S)-7-(2-amino-3-cyano-7-fluorobenzo[b]thiophen-4-yl)-4-(3,8-diazabicyclo[3.2.1]octan-3-yl)-8-fluoro-6-(trifluoromethyl)quinazolin-2-yl)oxy)methyl)pyrrolidin-1-yl)propoxy)propanamido)-3,3-dimethylbutanoyl)-4-hydroxy-N—((S)-1-(2′,4′,6′-trifluoro-[1,1′-biphenyl]-4-yl)ethyl)pyrrolidine-2-carboxamide]	52 nM	49 nM	8.9 nM
C[C@H](NC(=O)[C@@H]1C[C@@H](O)CN1C(=O)[C@@H](NC(=O)CCOCCCN1CCC[C@H]1COc1nc(N2CC3CCC(C2)N3)c2cc(C(F)(F)F)c(-c3ccc(F)c4sc(N)c(C#N)c34)c(F)c2n1)C(C)(C)C)c1ccc(-c2c(F)ccc(F)c2F)cc1 [Example 93, (2S,4R)-1-((2S)-2-(3-(3-((2S)-2-((((7S)-7-(2-amino-3-cyano-7-fluorobenzo [b]thiophen-4-yl)-4-(3,8-diazabicyclo [3.2.1]octan-3-yl)-8-fluoro-6-(trifluoromethyl)quinazolin-2-yl)oxy)methyl)pyrrolidin-1-yl)propoxy)propanamido)-3,3-dimethylbutanoyl)-4-hydroxy-N—((S)-1-(2′,3′,6′-trifluoro-[1,1′-biphenyl]-4-yl)ethyl)pyrrolidine-2-carboxamide]	54 nM	34 nM	9.1 nM
C[C@H](NC(=O)[C@@H]1C[C@@H](O)CN1C(=O)[C@@H](NC(=O)CCOCCCN1CCC[C@H]1COc1nc(N2CC3CCC(C2)N3)c2cc(C(F)(F)F)c(-c3ccc(F)c4sc(N)c(C#N)c34)c(F)c2n1)C(C)(C)C)c1ccc(-c2cccc(F)c2F)cc1 [Example 94, (2S,4R)-1-((2S)-2-(3-(3-((2S)-2-((((7S)-7-(2-amino-3-cyano-7-fluorobenzo [b]thiophen-4-yl)-4-(3,8-diazabicyclo[3.2.1]octan-3-yl)-8-fluoro-6-(trifluoromethyl)quinazolin-2-yl)oxy)methyl)pyrrolidin-1-yl)propoxy)propanamido)-3,3-dimethylbutanoyl)-N—((S)-1-(2′,3′-difluoro-[1,1′-biphenyl]-4-yl)ethyl)-4-hydroxypyrrolidine-2-carboxamide]	67 nM	38 nM	9.2 nM
